Converted amounts (≈) assume the structure as drawn.
Experiments:
[1] = system: S. aureus; assay: Antimicrobial activity MIC, S. aureus; format: cell-based, Staphylococcus aureus (MTCC 9660)
[2] = system: B. subtilis; assay: Antimicrobial activity MIC, B. subtilis; format: cell-based, Bacillus subtilis (MTCC 441)
[3] = system: E. coli; assay: Antimicrobial activity MIC, E. coli; format: cell-based, Escherichia coli (MTCC 443)
[4] = system: P. aeruginosa; assay: Antimicrobial activity MIC, P. aeruginosa; format: cell-based, Pseudomonas aeruginosa (MTCC 424)
[5] = system: A. flavus; assay: Antimicrobial activity MIC, A. flavus; format: cell-based, Aspergillus flavus
[6] = system: T. atroviridae; assay: Antimicrobial activity MIC, T. atroviridae; format: cell-based, Trichoderma atroviride
[7] = system: P. citrinum; assay: Antimicrobial activity MIC, P. citrinum; format: cell-based, Penicillium citrinum
[8] = system: C. albicans; assay: Antimicrobial activity MIC, C. albicans; format: cell-based, Candida albicans

5-(4-(Benzyloxy)phenyl)-7-thioxo-7,8-dihydropyrimido[4,5-d]pyrimidine-2,4(1H,3H)-dione [Compound 4b]
MIC ([1]; S. aureus): 0.34 µM | MIC ([2]; B. subtilis): 0.17 µM | MIC ([3]; E. coli): 0.17 µM | MIC ([4]; P. aeruginosa): 0.17 µM | MIC ([5]; A. flavus): 0.01 µM | MIC ([6]; T. atroviridae): 0.01 µM | MIC ([7]; P. citrinum): 0.01 µM | MIC ([8]; C. albicans): 0.005 µM

O=c1[nH]c(=O)c2c(-c3cccc(OCc4ccccc4)c3)nc(=S)[nH]c2[nH]1 [Compound 4a, 5-(3-(Benzyloxy)phenyl)-7-thioxo-7,8-dihydropyrimido[4,5-d]pyrimidine-2,4(1H,3H)-dione]
MIC ([1]; Staphylococcus aureus): 0.02 µM (≈ 0.00757 µg/mL) | MIC ([2]; Bacillus subtilis): 0.01 µM (≈ 0.00378 µg/mL) | MIC ([3]; Escherichia coli): 0.04 µM (≈ 0.0151 µg/mL) | MIC ([4]; Pseudomonas aeruginosa): 0.04 µM (≈ 0.0151 µg/mL) | MIC ([5]; Aspergillus flavus): 0.17 µM (≈ 0.0643 µg/mL) | MIC ([6]; Trichoderma atroviride): 0.17 µM (≈ 0.0643 µg/mL) | MIC ([7]; Penicillium citrinum): 0.17 µM (≈ 0.0643 µg/mL) | MIC ([8]; Candida albicans): 0.08 µM (≈ 0.0303 µg/mL)

COc1ccc(-c2nc(=S)[nH]c3[nH]c(=O)[nH]c(=O)c23)cc1O [Compound 4c, 5-(3-Hydroxy-4-methoxyphenyl)-7-thioxo-7,8-dihydropyrimido[4,5-d]pyrimidine-2,4(1H,3H)-dione]
MIC ([1]; Staphylococcus aureus): 0.4 µM (≈ 0.127 µg/mL) | MIC ([2]; Bacillus subtilis): 0.2 µM (≈ 0.0637 µg/mL) | MIC ([3]; Escherichia coli): 0.2 µM (≈ 0.0637 µg/mL) | MIC ([4]; Pseudomonas aeruginosa): 0.2 µM (≈ 0.0637 µg/mL) | MIC ([5]; Aspergillus flavus): 0.05 µM (≈ 0.0159 µg/mL) | MIC ([6]; Trichoderma atroviride): 0.05 µM (≈ 0.0159 µg/mL) | MIC ([7]; Penicillium citrinum): 0.05 µM (≈ 0.0159 µg/mL) | MIC ([8]; Candida albicans): 0.03 µM (≈ 0.00955 µg/mL)

COc1ccc(-c2nc(=S)[nH]c3c2c(=O)n(C)c(=O)n3C)cc1O [Compound 4d, 5-(3-Hydroxy-4-methoxyphenyl)-1,3-dimethyl-7-thioxo-7,8-dihydropyrimido[4,5-d]pyrimid-ine-2,4(1H,3H)-dione]
MIC ([1]; Staphylococcus aureus): 0.012 µM (≈ 0.00416 µg/mL) | MIC ([2]; Bacillus subtilis): 0.006 µM (≈ 0.00208 µg/mL) | MIC ([3]; Escherichia coli): 0.012 µM (≈ 0.00416 µg/mL) | MIC ([4]; Pseudomonas aeruginosa): 0.012 µM (≈ 0.00416 µg/mL) | MIC ([5]; Aspergillus flavus): 0.37 µM (≈ 0.128 µg/mL) | MIC ([6]; Trichoderma atroviride): 0.37 µM (≈ 0.128 µg/mL) | MIC ([7]; Penicillium citrinum): 0.37 µM (≈ 0.128 µg/mL) | MIC ([8]; Candida albicans): 0.18 µM (≈ 0.0623 µg/mL)

Source: US12297204B2, “5-(substitutedphenyl)-7-thioxo-7,8-dihydropyrimido[4,5-d]pyrimidine-2,4(1H,3H)-dione analogues as antibacterial agents” (KING FAISAL UNIVERSITY, priority 2023, dated 2025)
